17 compounds from patent publication US8669361B2, “Pyrazol-4-yl-heterocyclyl-carboxamide compounds and methods of use” (Genentech, Inc., priority 2010, dated 2014) can be followed below.

What all share (test): Pim kinase binding activity, Caliper LC3000 microfluidic peptide phosphorylation assay (Example 901)
Holding throughout (assay type): biochemical

In assay [1] the target is PIM3 (Homo sapiens (Human), UniProt Q86V86). As to conditions: 55 pM PIM3, 1 μM FAM-peptide, 10 μM ATP, 90 minutes at room temperature; read-out: PIM3 LC3K (KI). How it is done:
(§1) PIM-1, -2, and -3 enzymes were generated as fusion proteins expressed in bacteria and purified by IMAC column chromatography (Sun, X., Chiu, J. F., and He, Q. Y. (2005) Expert Rev. Proteomics, 2:649-657). A fluorescent-labeled Pim-specific peptide substrate, was custom synthesized by American Peptide Company (Sunnyvale, Calif.). Reaction Buffer contained 10 mM HEPES, pH 7.2, 10 mM MgCl2, 0.01% Tween 20, 2 mM DTT. Termination Buffer contained 190 mM HEPES, pH 7.2, 0.015% Brij-35, 0.2% Coating Reagent 3 (Caliper Life Sciences, Hopkinton, Mass.), 20 mM EDTA. Separation Buffer contained 100 mM HEPES, pH 7.2, 0.015% Brij-35, 0.1% Coating Reagent 3, 1:200 Coating Reagent 8 (Caliper Life Sciences, Hopkinton, Mass.), 10 mM EDTA and 5% DMSO.
(§2) PIM reactions were carried out in a final volume of 10 μL per well in a 384-well plate. A standard enzymatic reaction, initiated by the addition of 5 μL 2×ATP and test compound to 5 μL of 2× enzyme and FAM-peptide, contained 20 pM PIM1, 50 pM PIM2, or 55 pM PIM3, 1 μM FAM-peptide, and 10 μM ATP, in Reaction Buffer. After 90 minutes of incubation at room temperature, the phosphorylation reaction was stopped by the addition of 10 μL Termination Buffer. The product and substrate in each independent reaction were separated on a 12-sipper microfluidic chip (Caliper Life Sciences, Hopkinton, Mass.) run on a Caliper LC3000® (Caliper Life Sciences, Hopkinton, Mass.). The separation of product and substrate was optimized by choosing voltages and pressure using Caliper's Optimizer software (Hopkinton, Mass.). The separation conditions used a downstream voltage of −500V, an upstream voltage of −2150V, and a screening pressure of −1.2 psi. The product and substrate fluorophore were excited at 488 nm and detected at 530 nm. Substrate conversion was calculated from the electropherogram using HTS Well Analyzer software (Caliper Life Sciences, Hopkinton, Mass.). Ki values for the test compound were calculated.

Assay [2] addresses PIM1 (Homo sapiens (Human), UniProt P11309). As to conditions: 20 pM PIM1, 1 μM FAM-peptide, 10 μM ATP, 90 minutes at room temperature; read-out: PIM1 LC3K (KI). How it is done:
as §1, §2

Assay [3] has as its target PIM2 (Homo sapiens (Human), UniProt Q9P1W9). Conditions: 50 pM PIM2, 1 μM FAM-peptide, 10 μM ATP, 90 minutes at room temperature; read-out: PIM2 LC3K (KI). How it is done:
A fluorescent-labeled Pim-specific peptide substrate, was custom synthesized by American Peptide Company (Sunnyvale, Calif.). Reaction Buffer contained 10 mM HEPES, pH 7.2, 10 mM MgCl2, 0.01% Tween 20, 2 mM DTT. Termination Buffer contained 190 mM HEPES, pH 7.2, 0.015% Brij-35, 0.2% Coating Reagent 3 (Caliper Life Sciences, Hopkinton, Mass.), 20 mM EDTA. Separation Buffer contained 100 mM HEPES, pH 7.2, 0.015% Brij-35, 0.1% Coating Reagent 3, 1:200 Coating Reagent 8 (Caliper Life Sciences, Hopkinton, Mass.), 10 mM EDTA and 5% DMSO.
as §2, with “A standard enzymatic reaction, initiated by the addition of 5 μL 2×ATP and test compound to 5 μL of 2× enzyme and FAM-peptide, contained 20 pM PIM1, 50 pM PIM2, or 55 pM PIM3, 1 μM FAM-peptide, and 10 μM ATP, in Reaction Buffer.” left out, “The product and substrate fluorophore were excited at 488 nm and detected at 530 nm.” left out

pKi: −log10 of the molar value.

Sequence of PIM1 (P11309 whole entry): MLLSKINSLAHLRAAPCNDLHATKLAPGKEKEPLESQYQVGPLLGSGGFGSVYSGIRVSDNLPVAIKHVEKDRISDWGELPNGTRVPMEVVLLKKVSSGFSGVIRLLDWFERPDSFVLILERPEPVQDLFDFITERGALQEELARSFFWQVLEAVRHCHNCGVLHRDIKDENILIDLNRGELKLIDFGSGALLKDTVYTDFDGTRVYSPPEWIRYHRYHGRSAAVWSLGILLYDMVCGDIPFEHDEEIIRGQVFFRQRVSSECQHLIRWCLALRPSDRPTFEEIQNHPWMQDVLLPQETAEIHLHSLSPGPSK
Sequence of PIM2 (Q9P1W9 whole entry): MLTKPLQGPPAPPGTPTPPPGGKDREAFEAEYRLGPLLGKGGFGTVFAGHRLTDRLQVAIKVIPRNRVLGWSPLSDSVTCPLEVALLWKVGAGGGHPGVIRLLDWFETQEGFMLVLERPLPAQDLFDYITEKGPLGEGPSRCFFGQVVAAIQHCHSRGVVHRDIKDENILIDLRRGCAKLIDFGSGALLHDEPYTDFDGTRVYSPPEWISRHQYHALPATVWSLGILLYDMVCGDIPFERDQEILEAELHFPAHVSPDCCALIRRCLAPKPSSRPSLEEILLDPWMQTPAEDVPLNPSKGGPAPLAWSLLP

Regarding `Cn1cc(NC(=O)c2nc(-c3c(F)cccc3F)sc2N)cn1` [Example 102, 5-amino-2-(2,6-difluorophenyl)-N-(1-methyl-1H-pyrazol-4-yl)thiazole-4-carboxamide], the pKi (as a rule, the Ki on a negative log10 scale, so that one unit is a factor of ten) in assay [1] was 8.06; in assay [2], 7.80; in assay [3] it was 6.96.

With `Cn1ncc(NC(=O)c2nc(-c3c(F)cccc3F)sc2N)c1NCC1CCNCC1` [Example 105, 5-amino-2-(2,6-difluorophenyl)-N-(1-methyl-5-(piperidin-4-ylmethylamino)-1H-pyrazol-4-yl)thiazole-4-carboxamide], the values for the pKi in assay [1], in assay [2] and in assay [3] were 8.24, 8.34 and 6.83, respectively.

`Cn1ncc(NC(=O)c2nc(-c3ccccc3F)sc2N)c1N1CCC[C@H](N)C1` [Example 107, (S)-5-amino-N-(5-(3-aminopiperidin-1-yl)-1-methyl-1H-pyrazol-4-yl)-2-(2-fluorophenyl)thiazole-4-carboxamide]: the negative-log Ki (pKi) in assay [1] was 9.24; in assay [2], 8.91; in assay [3], 7.70.

Regarding `Cn1ncc(NC(=O)c2nc(-c3ccccc3)ccc2N)c1N1CCC(N)CC1` [Example 109, 3-amino-N-(5-(4-aminopiperidin-1-yl)-1-methyl-1H-pyrazol-4-yl)-6-phenylpicolinamide], the negative logarithm of the Ki (pKi) is 8.58 in assay [1], 9.12 in assay [2] and 7.39 in assay [3].

In the case of `Cn1ncc(NC(=O)c2nc(-c3ccccc3F)ccc2N)c1N1CCC[C@@H](N)C1` [Example 112, (R)-3-amino-N-(5-(3-aminopiperidin-1-yl)-1-methyl-1H-pyrazol-4-yl)-6-(2-fluorophenyl)picolinamide], the figures for the pKi in assay [1], in assay [2] and in assay [3] were 9.47, 9.61 and 8.60, respectively.

Turning to `Cn1ncc(NC(=O)c2nc(-c3ccccc3F)ccc2N)c1OC1CCNCC1` [Example 116, 3-amino-6-(2-fluorophenyl)-N-(1-methyl-5-(piperidin-4-yloxy)-1H-pyrazol-4-yl)picolinamide], the pKi is 8.30 in assay [1], 8.36 in assay [2] and 7.58 in assay [3].

Turning to `Cn1ncc(NC(=O)c2nc(Cl)cnc2N)c1N1CCC[C@H](N)C1` [Example 123, (S)-3-amino-N-(5-(3-aminopiperidin-1-yl)-1-methyl-1H-pyrazol-4-yl)-6-chloropyrazine-2-carboxamide], the negative-log Ki (pKi) in assay [1] was 6.67; in assay [2], 6.86; in assay [3] it was 6.23.

Consider `Cn1ncc(NC(=O)c2nc(-c3ccccc3F)ccc2N)c1N1CC[C@@H](N)C1` [Example 124, (R)-3-amino-N-(5-(3-aminopyrrolidin-1-yl)-1-methyl-1H-pyrazol-4-yl)-6-(2-fluorophenyl)picolinamide], for which the pKi in assay [1] is 8.42; in assay [3], 7.55.

`Cn1ncc(NC(=O)c2nc(-c3ccccc3F)ccc2N)c1N1CCC[C@H](N)CC1` [Example 142, (S)-3-amino-N-(5-(4-aminoazepan-1-yl)-1-methyl-1H-pyrazol-4-yl)-6-(2-fluorophenyl)picolinamide]: the negative logarithm of the Ki (pKi) is 9.61 in assay [1], 9.43 in assay [2] and 8.50 in assay [3].

Turning to `Cn1ncc(NC(=O)c2cncc(-c3ccccc3F)n2)c1N1CCC[C@H](N)CC1` [Example 220, (S)—N-(5-(4-aminoazepan-1-yl)-1-methyl-1H-pyrazol-4-yl)-6-(2-fluorophenyl)pyrazine-2-carboxamide], the results for the pKi in assay [1], in assay [2] and in assay [3] were 7.47, 7.66 and 6.24, respectively.

For the compound `CN1CCC(c2c(NC(=O)c3nc(-c4c(F)cccc4F)sc3N)cnn2C)CC1` [Example 231, 5-amino-2-(2,6-difluorophenyl)-N-(1-methyl-5-(1-methylpiperidin-4-yl)-1H-pyrazol-4-yl)thiazole-4-carboxamide], the pKi in assay [1] is 8.28; in assay [2], 8.12; in assay [3], 6.70.

With `Cn1ncc(NC(=O)c2ccc(F)c(-c3c(F)cccc3F)n2)c1N1CCC[C@@H](N)CC1` [Example 238, (R)—N-(5-(4-aminoazepan-1-yl)-1-methyl-1H-pyrazol-4-yl)-6-(2,6-difluorophenyl)-5-fluoropicolinamide], the negative logarithm of the Ki (pKi) in assay [1] was 8.61; in assay [2], 9.05; in assay [3], 7.76.

Regarding `Cn1ncc(NC(=O)c2nc(-c3c(F)cccc3F)sc2N)c1C1CCNCC1` [Example 263, 5-amino-2-(2,6-difluorophenyl)-N-(1-methyl-5-(piperidin-4-yl)-1H-pyrazol-4-yl)thiazole-4-carboxamide], the pKi in assay [1] is 8.21; in assay [2], 7.98; in assay [3], 6.73.

With `CN[C@H]1CCCN(c2c(NC(=O)c3nc(-c4c(F)cccc4F)sc3N)cnn2C)CC1` [Example 328, (S)-5-amino-2-(2,6-difluorophenyl)-N-(1-methyl-5-(4-(methylamino)azepan-1-yl)-1H-pyrazol-4-yl)thiazole-4-carboxamide], the results for the pKi in assay [1], in assay [2] and in assay [3] were 9.75, 10.02 and 8.36, respectively.

As for `Nc1sc(-c2c(F)cccc2F)nc1C(=O)Nc1cnn(CCF)c1` [Example 353, 5-amino-2-(2,6-difluorophenyl)-N-(1-(2-fluoroethyl)-1H-pyrazol-4-yl)thiazole-4-carboxamide], the pKi is 7.72 in assay [1], 7.92 in assay [2] and 7.42 in assay [3].

Turning to `CCn1ncc(NC(=O)c2nc(-c3ccccc3F)sc2N)c1N1CCC[C@@H](N)CC1` [Example 364, (R)-5-Amino-N-(5-(4-aminoazepan-1-yl)-1-ethyl-1H-pyrazol-4-yl)-2-(2-fluorophenyl)thiazole-4-carboxamide], the negative-log Ki (pKi) in assay [1] was 7.62; in assay [2] it was 7.70; in assay [3] it was 6.91.

Turning to `Cn1ncc(NC(=O)c2nc(-c3c(F)cccc3F)sc2N)c1C1CCC(N)CC1` (centres unmarked) [Example 369, 5-amino-N-(5-(4-aminocyclohexyl)-1-methyl-1H-pyrazol-4-yl)-2-(2,6-difluorophenyl)thiazole-4-carboxamide], the negative-log Ki (pKi) in assay [1] is 9.13; in assay [2], 9.34; in assay [3], 7.90.
